Laboratory results from ChEMBL document CHEMBL1122349, “Mannich bases of 4-phenyl-3-buten-2-one: a new class of antiherpes agent” (1983).
Values joined by “and” are separate entries in the source; they are usually repeats but may differ in a detail not shown here. Identical values can stand only once.

What was measured:
Human alphaherpesvirus 1 [1] = test: Reduction of lesion (from control), in hairless mouse model infected with HVH-1(antiherpes activity); type: functional, herpes simplex virus; parameters: concentration or dose not given beside the values
Human alphaherpesvirus 1 [2] = test: Average lesion score in hairless mouse model infected with HVH-1(antiherpes activity); type: functional, herpes simplex virus
Mus musculus [3] = organism: Mus musculus; test: Reduction of lesion severity, in hairless mouse test against herpes type-1,at 0.37% dose in 1.4% aq.polyvinyl alcohol; type: functional
Human alphaherpesvirus 1 [4] = test: Reduction of lesion severity, in hairless mouse test against herpes type-1,at 0.75% dose in 1.4% aq.polyvinyl alcohol; type: functional, herpes simplex virus
Mus musculus [5] = organism: Mus musculus; test: Reduction of lesion severity, in hairless mouse test against herpes type-1,at 1.5% dose in 1.4% aq.polyvinyl alcohol; type: functional
Human alphaherpesvirus 1 [6] = test: Reduction of lesion severity, in hairless mouse test against herpes type-1,at 3% dose in 1.4% aq.polyvinyl alcohol; type: functional, herpes simplex virus
Mus musculus [7] = organism: Mus musculus; test: Average lesion score in hairless mouse test against Herpes type-1 at dose of 0.37% in 1.4% aq.polyvinyl alcohol; type: functional
Mus musculus [8] = organism: Mus musculus; test: Average lesion score in hairless mouse test against Herpes type-1 at dose of 1.5% in 1.4% aq.polyvinyl alcohol; type: functional
Human alphaherpesvirus 1 [9] = test: Average lesion score in hairless mouse test against Herpes type-1 at dose of 3% in 1.4% aq.polyvinyl alcohol; type: functional, herpes simplex virus
Human alphaherpesvirus 1 [10] = test: Antiherpes (Type-1) activity in mouse paralysis model expressed as animals paralyzed treated/percent animals paralyzed control (% T/C); type: functional, herpes simplex virus
Human alphaherpesvirus 1 [11] = test: Average lesion score in hairless mouse test against Herpes type-1 at dose of 0.75% in 1.4% aq.polyvinyl alcohol; type: functional, herpes simplex virus
Mus musculus [12] = organism: Mus musculus; test: Reduction of lesion severity, in hairless mice test against herpes type-2,at 0.37% dose in 1.4% aq.polyvinyl alcohol; type: functional
Mus musculus [13] = organism: Mus musculus; test: Reduction of lesion severity, in hairless mice test against herpes type-2,at 0.75% dose in 1.4% aq.polyvinyl alcohol; type: functional
Mus musculus [14] = organism: Mus musculus; test: Reduction of lesion severity, in hairless mice test against herpes type-2,at 1.5% dose in 1.4% aq.polyvinyl alcohol; type: functional
Mus musculus [15] = organism: Mus musculus; test: Reduction of lesion severity, in hairless mice test against herpes type-2,at 2% dose in 1.4% aq.polyvinyl alcohol; type: functional
Mus musculus [16] = organism: Mus musculus; test: Reduction of lesion severity, in hairless mice test against herpes type-2,at 5% dose in 1.4% aq.polyvinyl alcohol; type: functional
Mus musculus [17] = organism: Mus musculus; test: Reduction of lesion severity, in hairless mouse test against herpes type-1,at 5% dose in 1.4% aq.polyvinyl alcohol; type: functional
Mus musculus [18] = organism: Mus musculus; test: Average lesion score in hairless mouse test against Herpes type-1 at dose of 5% in 1.4% aq.polyvinyl alcohol; type: functional

Row | Structure (SMILES) | Reduction (Human alphaherpesvirus 1 [1]) [%] | Average lesion score (Human alphaherpesvirus 1 [2]) | T/C (Human alphaherpesvirus 1 [10]) | further results
1 | COc1cccc(/C=C/C(=O)CC[N+](C)(C)C)c1.[I-] | 86 | 0.33 | – | –
2 | Cl.O=C(/C=C/c1ccc(Cl)c(Cl)c1)CCN1CCOCC1 | – | – | 0% | Reduction (Mus musculus [3]): 67%; Reduction (Human alphaherpesvirus 1 [4]): 80%; Reduction (Mus musculus [5]): 80%; Reduction (Human alphaherpesvirus 1 [6]): 80%; Average lesion score (Mus musculus [7]): 0.83; Average lesion score (Mus musculus [8]): 0.5; Average lesion score (Human alphaherpesvirus 1 [9]): 0.5; Average lesion score (Human alphaherpesvirus 1 [11]): 0.5
3 | CCC[S+](C)CCC(=O)/C=C/c1ccccc1.[I-] (stereo not drawn) | 74 | 0.67 | – | –
4 | Cl.OC(/C=C/c1ccccc1)CCN1CCOCC1 (stereo not drawn) | – | – | 88% | –
5 | Cl.O=C(/C=C/c1c(Cl)cccc1Cl)CCN1CCOCC1 | – | – | 14% | –
6 | C[S+](C)CCC(=O)/C=C/c1ccccc1.[I-] | 82 | 0.5 | – | Reduction (Mus musculus [3]): 76%; Reduction (Human alphaherpesvirus 1 [4]): 76%; Reduction (Mus musculus [5]): 82%; Reduction (Human alphaherpesvirus 1 [6]): 88%; Average lesion score (Mus musculus [7]): 0.67; Average lesion score (Mus musculus [8]): 0.5; Average lesion score (Human alphaherpesvirus 1 [9]): 0.33; Average lesion score (Human alphaherpesvirus 1 [11]): 0.67
7 | Cl.O=C(/C=C/c1cccc([N+](=O)[O-])c1)CCN1CCOCC1 | – | – | 47% | –
8 | Cl.O=C(/C=C/c1ccc(Cl)cc1)CCN1CCOCC1 | – | – | 12% | –
9 | Cl.O=C(/C=C/c1ccc(O)cc1)CCN1CCOCC1 | – | – | 63% | –
10 | CN(C)CCC(=O)/C=C/c1ccccc1.Cl | 30 | 1.8 | – | –
11 | O=C(/C=C/c1ccccc1)CCSc1ccccc1 | 10 | 2.5 | – | –
12 | Cl.N#Cc1ccc(/C=C/C(=O)CCN2CCOCC2)cc1 | – | – | 24% | –
13 | Cl.O=C(/C=C/c1ccccc1)CCN1CCOCC1 | 94 | 0.17 | 11% | Reduction (Mus musculus [12]): 70%; Reduction (Mus musculus [13]): 78%; Reduction (Mus musculus [14]): 78%; Reduction (Mus musculus [15]): 85%; Reduction (Mus musculus [3]): 67%; Reduction (Human alphaherpesvirus 1 [4]): 67%; Reduction (Mus musculus [5]): 80%; Reduction (Human alphaherpesvirus 1 [6]): 87%; Average lesion score (Mus musculus [7]): 0.83; Average lesion score (Mus musculus [8]): 0.55; Average lesion score (Human alphaherpesvirus 1 [9]): 0.33; Average lesion score (Human alphaherpesvirus 1 [11]): 0.83
14 | Cc1ccc(/C=C/C(=O)CCN2CCOCC2)cc1.Cl | – | – | 38% | –
15 | Cl.O=C(/C=C/c1cccc(C(F)(F)F)c1)CCN1CCOCC1 | – | – | 11% | –
16 | CCCSCCC(=O)/C=C/c1ccccc1 | 0 | 2.8 | – | –
17 | CCOP(=O)(CCC(=O)/C=C/c1ccccc1)OCC | 10 | 2.3 | – | –
18 | COc1ccc(/C=C/C(=O)CCN2CCOCC2)cc1.Cl | – | – | 25% | –
19 | CC(C)(C[N+](C)(C)C)C(=O)/C=C/c1ccccc1.[I-] | 13 | 2.33 | – | –
20 | Cl.O=C(/C=C/c1ccc2c(c1)OCO2)CCN1CCOCC1 | – | – | 14% | –
21 | C[N+](C)(C)CCC(=O)/C=C/c1ccccc1.[I-] | 64 | 1 | – | Reduction (Mus musculus [3]): 76%; Reduction (Human alphaherpesvirus 1 [4]): 76%; Reduction (Mus musculus [5]): 82%; Reduction (Human alphaherpesvirus 1 [6]): 88%; Average lesion score (Mus musculus [7]): 0.67; Average lesion score (Mus musculus [8]): 0.5; Average lesion score (Human alphaherpesvirus 1 [9]): 0.33; Average lesion score (Human alphaherpesvirus 1 [11]): 0.67
22 | CC(C[N+](C)(C)C)C(=O)/C=C/c1ccccc1.[I-] (stereo not drawn) | 89 | 0.33 | – | –
23 | CSc1ccc(/C=C/C(=O)CCN2CCOCC2)cc1.Cl | – | – | 12% | –
24 | C[S+]([O-])CCC(=O)/C=C/c1ccccc1 (stereo not drawn) | 48 | 1.3 | – | –
25 | O=C(O)CP(=O)([O-])[O-].[Na+].[Na+] [DISODIUM CARBOXYMETHYLPHOSPHONATE] | 74 | 0.33 | 24% and 61% | Reduction (Mus musculus [16]): 78%; Reduction (Human alphaherpesvirus 1 [4]): 9%; Reduction (Human alphaherpesvirus 1 [6]): 69%; Reduction (Mus musculus [17]): 87%; Average lesion score (Human alphaherpesvirus 1 [9]): 0.83; Average lesion score (Mus musculus [18]): 0.33; Average lesion score (Human alphaherpesvirus 1 [11]): 2.5
26 | CS(=O)(=O)c1ccc(/C=C/C(=O)CCN2CCOCC2)cc1.Cl | – | – | 12% | –
27 | COc1cccc(/C=C/C(=O)CCN2CCOCC2)c1.Cl | – | – | 0% | –
28 | O=C(CCc1ccc(Cl)c(Cl)c1)CCN1CCOCC1 | – | – | 50% | –
29 | O=C(/C=C/c1ccccc1)CCNc1ccccc1 | 9 | 2.67 | – | –
